Our source for the Activity values is ChEMBL document CHEMBL1151162, “Coumarins from Opopanax chironium. New dihydrofuranocoumarins and differential induction of apoptosis by imperatorin and heraclenin” (J Nat Prod, 2004).

Activity calls are given as the source filed them. No cut-off for these calls is given here.

Type in all cases: functional, cell-based
Test [1] concerns Jurkat. The experiment in a line: Induction of DNA fragmentation at G2/M phase in human Jurkat cells after 72 hrs by propidium iodide and FITC-dUTP double staining.
In test [2] the test system is Jurkat. The experiment in a line: Induction of cell cycle arrest in human Jurkat cells assessed as accumulation at G2/M phase after 48 hrs.
Test [3] concerns Jurkat. The experiment in a line: Induction of apoptosis in human Jurkat cells assessed as hypodiploidic cells after 72 hrs.
The test system of test [4] is Jurkat. The experiment in a line: Induction of cell cycle arrest in human Jurkat cells assessed as accumulation at G2/M phase at 25 ug/mL after 48 hrs.
Test [5] has as its system Jurkat. The experiment in a line: Induction of DNA fragmentation at G1/S phase in human Jurkat cells after 72 hrs by propidium iodide and FITC-dUTP double staining.

Regarding `CC1(C)O[C@@H]1COc1c2occc2cc2ccc(=O)oc12`, the result in the test with Jurkat [1], in the test with Jurkat [2] and with Jurkat [3] was Active.

In the case of `CC(C)=CCOc1c2occc2cc2ccc(=O)oc12`, the result in the test with Jurkat [2] and in the test with Jurkat [4] was inactive. In addition, the outcome in the test with Jurkat [5] was Active.
